Measurements as given in US12077503B2, “Substituted cyclic amides and their use as herbicides” (FMC CORPORATION, priority 2015, dated 2024).

What was measured:
Assay type in all cases: in vivo
corn (Zea mays) [1] = test: Test G Post-Emergence Protocol; details: Zea mays, post-emergence, 312 h, read-out: Corn damage rating; for plant injury at 15.625 g/ha: 15.625 g ai/ha, evaluated after 13 days (100=total damage to plant; 0=no damage to plant); for plant injury at 62.5 g/ha: 62.5 g ai/ha; for plant injury at 62.5 g/ha / plant injury at 250 g/ha: evaluated after 13 days, 100=total damage to plant, 0=no damage to plant; for plant injury at 250 g/ha: 250 g ai/ha
Outline: (§1)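 Pot-grown seedlings, 8 days old, raised in a glasshouse at 24/16 °C day/night with 14 h light and 65% humidity, were sprayed post-emergence with test compound in acetone/water (50:50) plus 0.5% Tween 20 at 15.625, 62.5 or 250 g/ha. Damage was scored visually 13 days later on a 0–100 scale (100 = total damage).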

[2] = test system: ivy-leaved morning glory (Ipomoea hederacea); test: Test G Post-Emergence Protocol; details: Ipomoea, post-emergence, 312 h, read-out: Morningglory, Ivy-leaved damage rating; for pest or weed control at 15.625 g/ha: 15.625 g ai/ha, evaluated after 13 days (100=total damage to plant; 0=no damage to plant); for pest or weed control at 62.5 g/ha: 62.5 g ai/ha; for pest or weed control at 62.5 g/ha / pest or weed control at 250 g/ha: evaluated after 13 days, 100=total damage to plant, 0=no damage to plant; for pest or weed control at 250 g/ha: 250 g ai/ha
Outline: as §1

[3] = test system: barnyardgrass (Echinochloa crus-galli); test: Test G Post-Emergence Protocol; details: Echinochloa crus-galli, post-emergence, 312 h, read-out: Barnyardgrass damage rating; for pest or weed control at 15.625 g/ha: 15.625 g ai/ha, evaluated after 13 days (100=total damage to plant; 0=no damage to plant); for pest or weed control at 62.5 g/ha: 62.5 g ai/ha; for pest or weed control at 62.5 g/ha / pest or weed control at 250 g/ha: evaluated after 13 days, 100=total damage to plant, 0=no damage to plant; for pest or weed control at 250 g/ha: 250 g ai/ha
Outline: as §1

[4] = test system: velvetleaf (Abutilon theophrasti); test: Test G Post-Emergence Protocol; details: Abutilon theophrasti, post-emergence, 312 h, read-out: Velvetleaf damage rating; for pest or weed control at 15.625 g/ha: 15.625 g ai/ha, evaluated after 13 days (100=total damage to plant; 0=no damage to plant); for pest or weed control at 62.5 g/ha: 62.5 g ai/ha; for pest or weed control at 62.5 g/ha / pest or weed control at 250 g/ha: evaluated after 13 days, 100=total damage to plant, 0=no damage to plant; for pest or weed control at 250 g/ha: 250 g ai/ha
Outline: as §1

[5] = test system: giant foxtail (Setaria faberi); test: Test G Post-Emergence Protocol; details: Setaria faberi, post-emergence, 312 h, read-out: Foxtail, Giant damage rating; for pest or weed control at 15.625 g/ha: 15.625 g ai/ha, evaluated after 13 days (100=total damage to plant; 0=no damage to plant); for pest or weed control at 62.5 g/ha: 62.5 g ai/ha; for pest or weed control at 62.5 g/ha / pest or weed control at 250 g/ha: evaluated after 13 days, 100=total damage to plant, 0=no damage to plant; for pest or weed control at 250 g/ha: 250 g ai/ha
Outline: as §1

[6] = test system: redroot pigweed (Amaranthus retroflexus); test: Test G Post-Emergence Protocol; details: Amaranthus retroflexus, post-emergence, 312 h, read-out: Pigweed, Redroot damage rating; for pest or weed control at 15.625 g/ha: 15.625 g ai/ha, evaluated after 13 days (100=total damage to plant; 0=no damage to plant); for pest or weed control at 62.5 g/ha: 62.5 g ai/ha; for pest or weed control at 62.5 g/ha / pest or weed control at 250 g/ha: evaluated after 13 days, 100=total damage to plant, 0=no damage to plant; for pest or weed control at 250 g/ha: 250 g ai/ha
Outline: as §1

corn (Zea mays) [7] = test: Test G Pre-Emergence Protocol; details: Zea mays, pre-emergence, 312 h, evaluated after 13 days; for plant injury at 15.625 g/ha: 15.625 g ai/ha; for plant injury at 15.625 g/ha / plant injury at 250 g/ha: read-out: Corn damage rating (100=total damage to plant; 0=no damage to plant); for plant injury at 62.5 g/ha: 62.5 g ai/ha, 100=total damage to plant, 0=no damage to plant, read-out: Corn damage rating; for plant injury at 250 g/ha: 250 g ai/ha
Outline: (§2)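 Pots of seeds in standard soil were grown for one day in a glasshouse (24/16 °C day/night, 14 h light, 65% humidity), then sprayed with compound in acetone/water 50:50 with 0.5% Tween 20 at 15.625, 62.5 or 250 g/ha. Damage was scored after 13 days on a 0 (none) to 100 (total) scale.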

[8] = test system: ivy-leaved morning glory (Ipomoea hederacea); test: Test G Pre-Emergence Protocol; details: Ipomoea, pre-emergence, 312 h, evaluated after 13 days; for pest or weed control at 15.625 g/ha: 15.625 g ai/ha; for pest or weed control at 15.625 g/ha / pest or weed control at 250 g/ha: read-out: Morningglory, Ivy-leaved damage rating (100=total damage to plant; 0=no damage to plant); for pest or weed control at 62.5 g/ha: 62.5 g ai/ha, 100=total damage to plant, 0=no damage to plant, read-out: Morningglory, Ivy-leaved damage rating; for pest or weed control at 250 g/ha: 250 g ai/ha
Outline: as §2

[9] = test system: barnyardgrass (Echinochloa crus-galli); test: Test G Pre-Emergence Protocol; details: Echinochloa crus-galli, pre-emergence, 312 h, evaluated after 13 days; for pest or weed control at 15.625 g/ha: 15.625 g ai/ha; for pest or weed control at 15.625 g/ha / pest or weed control at 250 g/ha: read-out: Barnyardgrass damage rating (100=total damage to plant; 0=no damage to plant); for pest or weed control at 62.5 g/ha: 62.5 g ai/ha, 100=total damage to plant, 0=no damage to plant, read-out: Barnyardgrass damage rating; for pest or weed control at 250 g/ha: 250 g ai/ha
Outline: as §2

[10] = test system: velvetleaf (Abutilon theophrasti); test: Test G Pre-Emergence Protocol; details: Abutilon theophrasti, pre-emergence, 312 h, evaluated after 13 days; for pest or weed control at 15.625 g/ha: 15.625 g ai/ha; for pest or weed control at 15.625 g/ha / pest or weed control at 250 g/ha: read-out: Velvetleaf damage rating (100=total damage to plant; 0=no damage to plant); for pest or weed control at 62.5 g/ha: 62.5 g ai/ha, 100=total damage to plant, 0=no damage to plant, read-out: Velvetleaf damage rating; for pest or weed control at 250 g/ha: 250 g ai/ha
Outline: as §2

[11] = test system: giant foxtail (Setaria faberi); test: Test G Pre-Emergence Protocol; details: Setaria faberi, pre-emergence, 312 h, evaluated after 13 days; for pest or weed control at 15.625 g/ha: 15.625 g ai/ha; for pest or weed control at 15.625 g/ha / pest or weed control at 250 g/ha: read-out: Foxtail, Giant damage rating (100=total damage to plant; 0=no damage to plant); for pest or weed control at 62.5 g/ha: 62.5 g ai/ha, 100=total damage to plant, 0=no damage to plant, read-out: Foxtail, Giant damage rating; for pest or weed control at 250 g/ha: 250 g ai/ha
Outline: as §2

[12] = test system: redroot pigweed (Amaranthus retroflexus); test: Test G Pre-Emergence Protocol; details: Amaranthus retroflexus, pre-emergence, 312 h, evaluated after 13 days; for pest or weed control at 15.625 g/ha: 15.625 g ai/ha; for pest or weed control at 15.625 g/ha / pest or weed control at 250 g/ha: read-out: Pigweed, Redroot damage rating (100=total damage to plant; 0=no damage to plant); for pest or weed control at 62.5 g/ha: 62.5 g ai/ha, 100=total damage to plant, 0=no damage to plant, read-out: Pigweed, Redroot damage rating; for pest or weed control at 250 g/ha: 250 g ai/ha
Outline: as §2

| Compound | plant injury at 15.625 g/ha (corn (Zea mays) [1]) [%] | plant injury at 62.5 g/ha (corn (Zea mays) [1]) [%] | plant injury at 250 g/ha (corn (Zea mays) [1]) [%] | pest or weed control at 15.625 g/ha [2] [%] | pest or weed control at 62.5 g/ha [2] [%] | pest or weed control at 250 g/ha [2] [%] | pest or weed control at 15.625 g/ha [3] [%] | pest or weed control at 62.5 g/ha [3] [%] | pest or weed control at 250 g/ha [3] [%] | pest or weed control at 15.625 g/ha [4] [%] | pest or weed control at 62.5 g/ha [4] [%] | pest or weed control at 250 g/ha [4] [%] | pest or weed control at 15.625 g/ha [5] [%] | pest or weed control at 62.5 g/ha [5] [%] | pest or weed control at 250 g/ha [5] [%] | pest or weed control at 15.625 g/ha [6] [%] | pest or weed control at 62.5 g/ha [6] [%] | pest or weed control at 250 g/ha [6] [%] | plant injury at 15.625 g/ha (corn (Zea mays) [7]) [%] | plant injury at 62.5 g/ha (corn (Zea mays) [7]) [%] | further results |
| --- | --- | --- | --- | --- | --- | --- | --- | --- | --- | --- | --- | --- | --- | --- | --- | --- | --- | --- | --- | --- | --- |
| CN1C[C@@H](c2cccc(C(F)(F)F)c2)[C@H](C(=O)Nc2cccc(F)n2)C1=O [Compound 1817] | 0 | 0 | 0 | 0 | 0 | 0 | 0 | 0 | 0 | 0 | 0 | 0 | 0 | 0 | 0 | 0 | 0 | 0 | 0 | 0 | plant injury at 250 g/ha (corn (Zea mays) [7]): 0%; pest or weed control at 15.625 g/ha [8]: 0%; pest or weed control at 62.5 g/ha [8]: 0%; pest or weed control at 250 g/ha [8]: 0%; pest or weed control at 15.625 g/ha [9]: 0%; pest or weed control at 62.5 g/ha [9]: 0%; pest or weed control at 250 g/ha [9]: 0%; pest or weed control at 15.625 g/ha [10]: 0%; pest or weed control at 62.5 g/ha [10]: 0%; pest or weed control at 250 g/ha [10]: 0%; pest or weed control at 15.625 g/ha [11]: 0%; pest or weed control at 62.5 g/ha [11]: 0%; pest or weed control at 250 g/ha [11]: 10%; pest or weed control at 15.625 g/ha [12]: 0%; pest or weed control at 62.5 g/ha [12]: 0%; pest or weed control at 250 g/ha [12]: 0% |
| CN1C[C@H](c2cccc(C(F)(F)F)c2)[C@@H](C(=O)Nc2ccc3cccnc3n2)C1=O (racemic) [Compound 1676] | 0 | 0 | 0 | 0 | 0 | 0 | 0 | 0 | 0 | 0 | 0 | 0 | 0 | 0 | 0 | 0 | 0 | 0 | 0 | 0 | plant injury at 250 g/ha (corn (Zea mays) [7]): 0%; pest or weed control at 15.625 g/ha [8]: 0%; pest or weed control at 62.5 g/ha [8]: 0%; pest or weed control at 250 g/ha [8]: 0%; pest or weed control at 15.625 g/ha [9]: 0%; pest or weed control at 62.5 g/ha [9]: 0%; pest or weed control at 250 g/ha [9]: 0%; pest or weed control at 15.625 g/ha [10]: 0%; pest or weed control at 62.5 g/ha [10]: 0%; pest or weed control at 250 g/ha [10]: 0%; pest or weed control at 15.625 g/ha [11]: 0%; pest or weed control at 62.5 g/ha [11]: 0%; pest or weed control at 250 g/ha [11]: 0%; pest or weed control at 15.625 g/ha [12]: 0%; pest or weed control at 62.5 g/ha [12]: 0%; pest or weed control at 250 g/ha [12]: 0% |
